Laboratory results as given in US11298314B2, “Injectable composition for localized fat reduction without pain, edema, and side effects, and method for preparing same” (AMI PHARM CO., LTD., priority 2017, dated 2022).
“Also recorded” adds a separate entry of the source.

Assays:
[1] = test system: inguinal fat pad; settings: 0.2 ml s.c. once into inguinal fat pad, 8 days post-injection; listed as DCA single composition
[2] = test system: sole of the rat paws; assay: Measurement of skin lesion (erythema) on rat paw; type: in vivo, Sprague Dawley rats; settings: for skin lesion (erythema) in words: 2 hours after administration;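 for grade of skin lesion (erythema), 1 hour after administration: grades − to ++++ mean no to extremely severe erythema versus before injection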;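 for grade of skin lesion (erythema), 2 hours after administration: grades − to ++++ mean no to extremely severe erythema versus before injection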;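 for grade of skin lesion (erythema), Immediately after administration: grades − to ++++ mean no to extremely severe erythema versus before injection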
Outline: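 Male Sprague Dawley rats (6 weeks, 170–200 g) received 0.1 ml test composition or PBS injected into the paw. Paw thickness measured by caliper before, immediately after, and 1 or 2 h post-injection; sole lesions photographed and graded 0–4.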

[3] = Formulation stability of PPC injectable preparations: property, transparency, particle size, pH; settings: based on PPC 5.0%
Experimental: The particle size was measured using a nano particle size analyzer (Microtrac Wave, MICROTRACT, USA). […] The transparency was measured using a spectrophotometer (CM-3600d, KONICA MINOLTA, JAPAN). The pH was measured with a pH meter (ST3100, OHAUS, GERMANY), and the isotonicity was measured with an osmotic pressure meter (Vapro 5600, Elitech Group, Tokyo, Japan), and viscosity was analyzed using a viscometer (Digital Viscometer CL-2, CAS, Korea).
The washed and sterilized preparation tank was charged with the water for injection (at room temperature), and phosphatidylcholine (PPC) and benzyl alcohol were added thereto, and the mixture was stirred at 200 RPM for 2 hours under the condition of nitrogen pressure, shading and room temperature. After the completion of stirring, the mixture was transferred to an ultra-high pressure homogenizer (Nano Disperser NLM100, Ilshin Autoclave, Korea) with a nitrogen pressure. Ultra-high pressure homogenization (dispersion) was carried out at 12,000 psi for 7 cycles, and the particles were finely pulverized. Then, the pH was adjusted. After filtration through a 0.2 μm filter, the vial was filled and sealed.
Specifically, the water for injection was put into the preparation tank which was cleaned and sterilized (room temperature), and sodium hydroxide was added to the water for injection. Then deoxycholic acid and benzyl alcohol were added, stirred and dissolved. Then, phosphatidylcholine was added thereto, and the mixture was stirred at 200 RPM for about 24 hours under shading, sealing, room temperature (25° C.), and nitrogen pressure. After completion of the stirring, the pH was adjusted (if necessary, with additional sodium hydroxide or hydrochloric acid), and it was filtered through a 0.2 μm filter, and filled into the vial and sealed.
Then glycocholic acid and benzyl alcohol were added, stirred and dissolved. Then, phosphatidylcholine was added thereto, and the mixture was stirred at 200 RPM for about 24 hours under shading, sealing, room temperature (25° C.), and nitrogen pressure. After completion of the stirring, the pH was adjusted (if necessary, with additional sodium hydroxide or 0.001-0.6% of hydrochloric acid), and it was filtered through a 0.2 μm filter, and filled into the vial and sealed.
The formulation stability of the PPC injectable compositions solubilized with glycocholic acid (GCA) in Tables 3 and 4 was evaluated immediately after the preparation and 30 days after the preparation (refrigerated storage).

[4] = test system: tissues of the injected area (rat paw); assay: H&E staining histological test (inflammation) of injected rat paw; type: in vivo, Sprague Dawley rats; settings: bile acid single composition 1.0% (w/v), injected rat paw
Experimental: The tissues of the injected area were dissected, fixed with 10% formalin, and then the specimen was prepared and images were captured using an optical microscope. The degree of inflammation was evaluated as follows.

[5] = test system: Caspase 3 in 3T3-L1 adipocytes; assay: Caspase 3 activity assay; type: cell-based
Experimental: The Caspase 3 activity assay was performed with the test materials to determine whether the cell death in the result of MTT assay was due to necrosis or apoptosis. The Caspase 3 specifically increases when apoptosis occurs and is a marker of apoptosis. […] The cells were then treated with 50 ul of cell lysis buffer (10 mM Tris-HCl, 10 mM NaH2PO4/NaHPO4, pH 7.5, 130 mM NaCl, 1% Triton X-100 and 10 mM sodium pyrophosphate) and left at 4° C. for […]. The supernatant was collected by centrifugation at 1000× rpm for 1 minute, and protein quantification was performed by BCA method. The 50 μl of reaction buffer (4 mM HEPES, pH 7.5, 10% glycerol, 2 mM dithiothreitol) and 0.5 μl of 4 mM DEVD-p-NA were added to each sample and reacted at 37° C. for 1 hour. Then wavelength was measured with a […] at 405 nm.

[6] = test system: paw of the rats; assay: Rat paw edema; type: in vivo, Sprague Dawley rats; settings: for degree of edema in words: 2 hours after administration, rat paw; for degree of edema, 1 hour after administration / degree of edema, 2 hours after administration / degree of edema, Immediately after administration: 0.1 ml into rat paw
Outline: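 Male Sprague Dawley rats (6 weeks old, 170–200 g) received 0.1 ml of PBS or test composition into the paw. Paw thickness measured by caliper before, immediately after, and 1 or 2 h post-injection; edema graded 0–4, with injection-site skin lesions photographed.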

[7] = test system: 3T3-L1 adipocytes; assay: Lipolysis assay (glycerol release); type: cell-based; settings: 48 hours; listed as DCA single
Experimental: The glycerol activity assay was performed with the test materials to determine whether the cell death in the MTT assay was due to necrosis or lipolysis. Glycerol is a specific marker that increases when fat breaks down. Abcam Lipolysis Assay Kit (Colorimetric) was used according to the manufacturer's manual, and the method of the test was as follows: […] And then the lysis was induced. […] After adding the glycerol assay complex (50 μl) thereto, the solution was incubated at room temperature for 30 minutes. Absorbance was measured at OD 570 (using standard curve for absolute determination).

[8] = bile acid single composition 1.0% (w/v)
[9] = bile acid single composition 2.5% (w/v)
[10] = bile acid single composition 5.0% (w/v)
[11] = bile acid single composition 7.5% (w/v)

## C[C@H](CCC(=O)O)[C@H]1CC[C@H]2[C@@H]3CC[C@@H]4C[C@H](O)CC[C@]4(C)[C@H]3C[C@H](O)[C@]12C [DCA, (4R)-4-[(3R,5R,8R,9S,10S,12S,13R,14S,17R)-3,12-dihydroxy-10,13-dimethyl-2,3,4,5,6,7,8,9,11,12,14,15,16,17-tetradecahydro-1H-cyclopenta[a]phenanthren-17-yl]pentanoic acid]
[1]
  inflammation at the site of administration, dermal and epidermal tissues: severe inflammation was induced
[2]; listed as DCA 1.0%
  skin lesion (erythema) in words: Moderate
[2]; listed as DCA 2.5%
  skin lesion (erythema) in words: “severe” and “extremely severe”
[2]; [8]
  grade of skin lesion (erythema), 1 hour after administration: ++
  grade of skin lesion (erythema), 2 hours after administration: ++
  grade of skin lesion (erythema), Immediately after administration: ++
[2]; [9]
  grade of skin lesion (erythema), 1 hour after administration: ++++
  grade of skin lesion (erythema), 2 hours after administration: +++
  grade of skin lesion (erythema), Immediately after administration: ++
[2]; [10]
  grade of skin lesion (erythema), 1 hour after administration: ++++
  grade of skin lesion (erythema), 2 hours after administration: ++++
  grade of skin lesion (erythema), Immediately after administration: ++
[2]; [11]
  grade of skin lesion (erythema), 1 hour after administration: ++++
  grade of skin lesion (erythema), 2 hours after administration: ++++
  grade of skin lesion (erythema), Immediately after administration: ++
[3]
  bile acid concentration at which stable injectable preparations can be made: ≥ 2.1%
[4]
  Inflammation (H&E), BA % (w/v) 1.0: +++
[5]; after 48 hours
  caspase-3 activity: returned to pretreatment levels
[5]; up to 24 hours
  caspase-3 activity: some caspase-3 activity
[6]; listed as DCA 1.0%
  degree of edema in words: severe
[6]; listed as DCA 2.5%
  degree of edema in words: “severe” and “extremely severe”
[6]; [8]
  degree of edema, 1 hour after administration: +++ (severe edema [+++, (the degree of swelling was 40-60% compared to before the injection)])
  degree of edema, 2 hours after administration: +++ (severe edema [+++, (the degree of swelling was 40-60% compared to before the injection)])
  degree of edema, Immediately after administration: ++ (moderate edema [++, (the degree of swelling was 20-40% compared to before the injection)])
[6]; [9]
  degree of edema, 1 hour after administration: ++++ (extremely severe edema [++++, (the degree of swelling was 60% or more compared to before the injection)])
  degree of edema, 2 hours after administration: ++++ (extremely severe edema [++++, (the degree of swelling was 60% or more compared to before the injection)])
  degree of edema, Immediately after administration: ++ (moderate edema [++, (the degree of swelling was 20-40% compared to before the injection)])
[6]; [10]
  degree of edema, 1 hour after administration: ++++ (extremely severe edema [++++, (the degree of swelling was 60% or more compared to before the injection)])
  degree of edema, 2 hours after administration: ++++ (extremely severe edema [++++, (the degree of swelling was 60% or more compared to before the injection)])
  degree of edema, Immediately after administration: ++ (moderate edema [++, (the degree of swelling was 20-40% compared to before the injection)])
[6]; [11]
  degree of edema, 1 hour after administration: ++++ (extremely severe edema [++++, (the degree of swelling was 60% or more compared to before the injection)])
  degree of edema, 2 hours after administration: ++++ (extremely severe edema [++++, (the degree of swelling was 60% or more compared to before the injection)])
  degree of edema, Immediately after administration: ++ (moderate edema [++, (the degree of swelling was 20-40% compared to before the injection)])
[7]
  glycerol release / cytolytic activity: slightly higher cytolytic activity than at 24 hours; also recorded: slightly higher cytolytic activity than that of 24 hours
